From patent publication US20130303788A1, “METHOD OF PRODUCING BIPHENOLIC COMPOUND, NOVEL BIPHENYL COMPOUND AND SYNTHESIS METHOD THEREOF, AND PHARMACEUTICAL COMPOSITION FOR TREATING PARKINSON'S DISEASE” (Tzu Chi University, priority 2012, published 2013)

Columns and labels:
inflammatory pain = settings: Lin Yi-Ruu et al. (2007); cited from earlier work
[1] = test system: mouse model of PD (6-OHDA unilateral striatal lesion); test: Apomorphine-induced rotation test in 6-OHDA mouse model of PD; assay type: in vivo, NMRI mice
Experimental: The respective NMRI mouse was anesthetized with ketamine ([…], intraperitoneally). Subsequently, the respective NMRI mouse was placed into a stereotactic frame with nose and ear bars specially designed for mice. 6-hydroxydopamine (6-OHDA) was injected with saline containing 0.02% ascorbic acid (as a vehicle) into the right striatum of the respective NMRI mouse so that unilateral striatal lesion was induced (i.e., damage to dopaminergic neurons in the unilateral striatum was induced). The injection was conducted at a rate of 1 μL/minute using a Hamilton syringe at the following coordinates: AP: −0.9 mm; ML: −1.9 mm; DV: −2.2 mm with respect to bregma, and a final dose of 15 μg was administered. The needle was left standing for 5 minutes after the injection was finished, and was slowly withdrawn.
The respective NMRI mouse was allowed to habituate to the ambient environment for 10 minutes before the apomorphine-induced rotation test was performed. Apomorphine was then injected intraperitoneally into the respective NMRI mouse at a dose of 0.5 mg/kg. The respective NMRI mouse was placed in a glass bowl with a diameter of 20 cm and was attached to an automatic rotometer (TSE, Bad Homburg, Germany) via a specially designed harness. Each circular movement exceeding 30° was recorded. The contralateral movements (toward the nonlesioned side) and ipsilateral movements (toward the lesioned side) of the NMRI mice were counted during a period of 60 minutes. The net rotation was calculated according to the following formula:
where A=net rotation • B=the total number of ipsilateral movements during the period of 60 minutes • C=the total number of contralateral movements during the period of 60 minutes 4. Determination of TH (Tyrosine Hydroxylase) Expression Level and iNOS (Inducible Nitric Oxide Synthase) Expression Level: […]
6-OHDA was injected into NMRI mice according to the method as described in section 2 of General procedures. Product 1 or product 2 was administered intraperitoneally to the respective NMRI mouse at a dose of 5 mg/kg, 1 mg/kg, 0.5 mg/kg, 0.1 mg/kg, or 0.05 mg/kg for 14 consecutive days, starting on Day 7 after the 6-OHDA injection. NMRI mice into which a vehicle (saline containing 0.02% ascorbic acid) was injected (generally according to the method as described in section 2 of General Procedures, except that 6-OHDA was not injected), and which were not treated with product 1 or product 2 after the injection of the vehicle, served as a sham operated control. NMRI mice into which 6-OHDA was injected and which were not treated with product 1 or product 2 after the 6-OHDA injection served as a pathological control. The rotational behavior of the NMRI mice was evaluated using the apomorphine-induced rotation test as described in section 3 of General Procedures on Days 7, 14, and 21 after the 6-OHDA injection.

[2] = test system: iNOS (Inducible Nitric Oxide Synthase); test: iNOS expression level (iNOS immunohistochemistry) in striatum of 6-OHDA mouse model of PD; assay type: in vivo, NMRI mice; settings: Day 21 after 6-OHDA, FIG. 17
Experimental: The respective NMRI mouse was deeply anaesthetized with thiopental (50 mg/kg, intraperitoneally). The respective NMRI mouse was perfused transcardially with a heparin solution (0.05% heparin in 0.1 M PBS), and was subsequently perfused with 100 mL of ice-cold fixative (4% paraformaldehyde in 0.1 M PBS). The brain of the respective NMRI mouse was removed and was postfixed in the same ice-cold fixative for 12 hours, followed by dehydration in 30% sucrose in 0.1 M PBS. The brain was frozen and was subjected to tissue slicing. Serial coronal sections (a thickness of 20 μm) were cut on a freezing microtome and were placed in PBS. The sections were later processed for free-floating TH or iNOS immunohistochemistry.
The sections were rinsed three times with PBS (30 minutes for each time), were treated with 3% H2O2/10% methanol in PBS for 30 minutes for quenching the endogenous peroxidase activity, and were rinsed three times with PBS. […]
TH expression level in the striatum and the substantia nigra (SN), and iNOS expression level in the striatum were determined according to the method as described in section 4 of General Procedures on Day 21 after the injection of 6-OHDA or the vehicle. […]

C=CCc1ccc(O)c(-c2ccc(O)c(CC=C)c2)c1 [product 1, 5,3′-Diallyl-biphenyl-2,4′-diol]
alleviation of inflammatory pain in an animal model (inflammatory pain): effective in alleviating inflammatory pain | unilateral rotations (apomorphine-induced), subchronic post-treatment, 0.1 mg/kg ([1]; 0.1 mg/kg i.p., 14 consecutive days starting Day 7 after 6-OHDA, FIG. 13): not a low dose of product 1 | unilateral rotations (apomorphine-induced), subchronic post-treatment, 0.5 mg/kg ([1]; 0.5 mg/kg i.p., 14 consecutive days starting Day 7 after 6-OHDA, FIG. 13): significantly inhibited unilateral rotations | unilateral rotations (apomorphine-induced), subchronic post-treatment, 1 mg/kg ([1]; 1 mg/kg i.p., 14 consecutive days starting Day 7 after 6-OHDA, FIG. 13): significantly inhibited unilateral rotations | contralateral movements induced by apomorphine, subchronic treatment ([1]; 5 mg/kg or 10 mg/kg i.p. for 14 consecutive days after 6-OHDA injection, FIG. 11): significantly reduced the contralateral movements induced by apomorphine | apomorphine-induced rotation behavior after single administration ([1]; 5 mg/kg or 10 mg/kg i.p. once, 30 minutes before 6-OHDA, tested one week after 6-OHDA, data not shown): did not prevent the apomorphine-induced rotation behavior | iNOS expression in the striatum, subchronic post-treatment ([2]; 0.5, 1, 5 mg/kg i.p. 14 consecutive days starting Day 7): significantly inhibited iNOS expression in the striatum | relationship between dose and number of iNOS-positive cells in the striatum ([2]; 0.5, 1, 5 mg/kg i.p.): dose-dependent relationship
